This note sets out measurements from patent US8822430B2 (Gilead Sciences, Inc., priority 2009, dated 2014).

In this assay the test system is HCV 1b RLuc cells (dicistronic genotype 1b Con1 replicon). In words: Renilla luciferase (RLuc)-based HCV replicon reporter assay. The assay is classed as cell-based, HCV genotype 1b. The settings on record: Hepatitis C virus, 72 h, HCV 1b RLuc replicon, 72 hours; read-out: Activity (antiviral potency [EC50]). The protocol: Antiviral potency (EC50) was determined using a Renilla luciferase (RLuc)-based HCV replicon reporter assay. To perform the assay, HCV 1b RLuc cells (harboring a dicistronic genotype 1b Con1 replicon that encodes a RLuc reporter), or HCV 1a RLuc cells (harboring a dicistronic genotype 1a H77 replicon that encodes a RLuc reporter), were dispensed into 384-well plates. Compounds were re-suspended in DMSO at a concentration of 10 mM and serially diluted in DMSO using an automated pipeting instrument. Serially diluted compounds were mixed with cell culture media and added to the seeded cells. DMSO was used as a negative (solvent) control, and the protease inhibitor ITMN-191 was included at a concentration >100×EC50 as a positive control. 72 hours later, cells were lysed and Renilla luciferase activity quantified as recommended by the manufacturer (Promega-Madison, Wis.). Non-linear regression was performed to calculate EC50 values.
Biological data (antiviral potency [EC50] was determined using a Renilla luciferase (RLuc)-based HCV replicon reporter assay—HCV 1b RLuc) for representative compounds of the invention is provided in the following table. These compounds can be prepared using procedures similar to those described above.
On the technique in general: In antiviral work, replicon cells carry a viral genome segment that copies itself.
For orientation: EC50 means the midpoint of the concentration-response curve. For the compound `COC(=O)N[C@H](C(=O)N1CCC[C@H]1C(=O)Nc1ccc(CCc2ccc(NC(=O)[C@@H]3CCCN3C(=O)[C@@H](NC(=O)OC)C(C)C)cc2)cc1)C(C)C`, the EC50 is 0.264 nM.
With `COC(=O)N[C@H](C(=O)N1CCC[C@H]1c1ncc(-c2ccc(-n3ccc(-c4cnc([C@@H]5CCCN5C(=O)[C@@H](NC(=O)OC)C(C)C)[nH]4)cc3=O)cc2)[nH]1)C(C)C` the figure was 38.1 nM.
With `COC(=O)N[C@H](C(=O)N1CCC(c2ncc(-c3ccc(-c4ccc(-c5cnc([C@@H]6CCCN6C(=O)[C@@H](NC(=O)OC)C(C)C)[nH]5)cc4)cc3)[nH]2)C1)C(C)C` (some centres unmarked) the figure was 0.775 nM; with `COC(=O)N[C@H](C(=O)N1CCC[C@H]1c1ncc(C#Cc2ccc(-c3ccc4nc([C@@H]5CCCN5C(=O)[C@@H](NC(=O)OC)C(C)C)[nH]c4c3)cc2)[nH]1)C(C)C`, 0.0168 nM.
With `COC(=O)N[C@H](C(=O)N1CCC[C@H]1c1ncc(-c2ccc3c(c2)CN(C)C(=O)c2cc(-c4cnc([C@@H]5CCCN5C(=O)[C@@H](NC(=O)OC)C(C)C)[nH]4)ccc2-3)[nH]1)C(C)C` the figure was 2.14 nM; with `COC(=O)N[C@H](C(=O)N1CCC[C@H]1c1ncc(-c2ccc(-c3ccn(-c4cnc([C@@H]5CCCN5C(=O)[C@@H](NC(=O)OC)C(C)C)[nH]4)c(=O)c3)cc2)[nH]1)C(C)C`, 15.9 nM.
In the case of `COC(=O)N[C@H](C(=O)N1CCC[C@H]1c1ncc(-c2ccc(-c3ccc(-c4cnc([C@@H]5CN(S(=O)(=O)c6ccccc6)CN5C(=O)[C@@H](NC(=O)OC)C(C)C)[nH]4)cc3)cc2)[nH]1)C(C)C`, the 50% effective concentration (EC50) was 0.0788 nM.
Consider `COC(=O)N[C@H](C(=O)N1CCC[C@H]1c1ncc(-c2ccc(-c3ccc(-c4ccc5nc([C@@H]6CCCN6C(=O)[C@@H](NC(=O)OC)C(C)C)[nH]c5c4)cc3)cc2)[nH]1)C(C)C`, for which the concentration for a half-maximal effect (EC50) is 0.0054 nM.
To `COC(=O)N[C@H](C(=O)N1CCC[C@H]1c1ncc(-c2ccc(-c3ccc(-c4ccc5nc([C@@H]6CCCN6C(=O)[C@@H](NC(=O)OC)C(C)C)[nH]c5c4)s3)cc2)[nH]1)C(C)C` belongs 0.003 nM; to `COC(=O)N[C@H](C(=O)N1CCC[C@H]1c1ncc(C#Cc2ccc(C#Cc3cnc([C@@H]4CCCN4C(=O)[C@@H](NC(=O)OC)C(C)C)[nH]3)cc2)[nH]1)C(C)C`, 0.0474 nM.
As to `COC(=O)N[C@H](C(=O)N1CCC[C@H]1c1ncc(-c2ccc(-c3ccc(-c4cnc(CN5CCC[C@@H](NC(=O)OC(C)(C)C)C5=O)[nH]4)cc3)cc2)[nH]1)C(C)C`, the EC50 was 0.0345 nM.
With `COC(=O)N[C@H](C(=O)N1CCC[C@H]1c1ncc(-c2ccc(-c3ccc(-c4cnc(CN5CCC[C@@H](N)C5=O)[nH]4)cc3)cc2)[nH]1)C(C)C`, the EC50 was 7.55 nM.
Take `COC(=O)N[C@H](C(=O)N1CCC[C@H]1c1ncc(-c2ccc(-c3ccc(-c4cnc(CN5CCC[C@@H](NC(=O)OC)C5=O)[nH]4)cc3)cc2)[nH]1)C(C)C`: the EC50 was 0.239 nM.
To `COC(=O)N[C@H](C(=O)N1CCC[C@H]1c1ncc(C#Cc2cccc3c(C#Cc4cnc([C@@H]5CCCN5C(=O)[C@@H](NC(=O)OC)C(C)C)[nH]4)cccc23)[nH]1)C(C)C` belongs 0.0142 nM.
Consider `COC(=O)N[C@H](C(=O)N1CN(C(=O)OC(C)(C)C)C[C@H]1C(=O)NCC(=O)c1ccc(-c2ccc(-c3cnc([C@@H]4CCCN4C(=O)[C@@H](NC(=O)OC)C(C)C)[nH]3)cc2)cc1)C(C)C`, for which the 50% effective concentration (EC50) came out at 3.41 nM.
With `COC(=O)N[C@H](C(=O)N1CCC[C@H]1c1ncc(C#Cc2ccc(-c3ccc(-c4cnc([C@@H]5CCCN5C(=O)[C@@H](NC(=O)OC)C(C)C)[nH]4)cc3)cc2)[nH]1)C(C)C` the figure was 0.0115 nM; with `COC(=O)N[C@H](C(=O)N1CCC[C@H]1c1nc(C(=O)N2CCC3(CC2)CCN(C(=O)c2c[nH]c([C@@H]4CCCN4C(=O)[C@@H](NC(=O)OC)C(C)C)n2)CC3)c[nH]1)C(C)C`, > 44.4 nM.
With `COC(=O)N[C@H](C(=O)N1CCC[C@H]1c1ncc(C(=O)N2CCN(c3ccc(-c4cnc([C@@H]5CCCN5C(=O)[C@@H](NC(=O)OC)C(C)C)[nH]4)cc3)CC2)[nH]1)C(C)C`, the EC50 is > 44.4 nM.
To `COC(=O)N[C@H](C(=O)NC1(c2ncc(-c3ccc(-c4ccc(-c5cnc([C@@H]6CCCN6C(=O)[C@@H](NC(=O)OC)C(C)C)[nH]5)cc4)cc3)[nH]2)CCC1)C(C)C` belongs 0.0184 nM; to `COC(=O)N[C@H](C(=O)N1CCC[C@H]1C1=NC(=O)C(C)(c2ccc(-c3ccc(-c4cnc([C@@H]5CCCN5C(=O)[C@@H](NC(=O)OC)C(C)C)[nH]4)cc3)cc2)N1)C(C)C` (some centres unmarked), > 44.4 nM.
With `COC(=O)N[C@H](C(=O)N1CCC[C@H]1c1nc2ccc(-c3ccc(-c4ccc5nc([C@@H]6CCCN6C(=O)[C@@H](NC(=O)OC)C(C)C)[nH]c5c4)s3)cc2[nH]1)C(C)C` the figure was 0.0103 nM; with `COC(=O)N[C@H](C(=O)NC1(c2ncc(-c3ccc(-c4ccc(-c5cnc([C@@H]6CCCN6C(=O)[C@@H](NC(=O)OC)C(C)C)[nH]5)cc4)cc3)[nH]2)CC1)C(C)C`, 0.0865 nM.
For `COC(=O)N[C@H](C(=O)N1CCC[C@H]1C(=O)Nc1ccc(-c2ccc(-c3ccc(-c4cnc([C@@H]5CCCN5C(=O)[C@@H](NC(=O)OC)C(C)C)[nH]4)cc3)cc2)cc1)C(C)C`, the concentration giving a half-maximal response (EC50) stood at 0.0875 nM.
Turning to `COC(=O)N[C@H](C(=O)N1CCC[C@H]1c1ncc(-c2ccc3c(c2)CCc2cc(-c4cnc([C@@H]5CCCN5C(=O)[C@@H](NC(=O)OC)C(C)C)[nH]4)ccc2-3)[nH]1)C(C)C`, the EC50 turned out to be 0.0099 nM.
With `COC(=O)N[C@H](C(=O)N1CCC[C@H]1c1ncc(-c2ccc3cc4cc(-c5cnc([C@@H]6CCCN6C(=O)[C@@H](NC(=O)OC)C(C)C)[nH]5)ccc4cc3c2)[nH]1)C(C)C` the figure was 0.007 nM.
With `COC(=O)N[C@H](C(=O)N1CCC[C@H]1c1nc2ccc(C#Cc3ccc4nc([C@@H]5CCCN5C(=O)[C@@H](NC(=O)OC)C(C)C)[nH]c4c3)cc2[nH]1)C(C)C` the figure was 0.139 nM.
Regarding `COC(=O)N[C@H](C(=O)N1CCC[C@H]1c1ncc(-c2ccc3c(c2)Cc2cc(-c4cnc([C@@H]5CCCN5C(=O)[C@@H](NC(=O)OC)C(C)C)[nH]4)ccc2-3)[nH]1)C(C)C`, the half-maximal effective concentration (EC50) was 0.0137 nM.
Turning to `COC(=O)N[C@H](C(=O)N1CCC[C@H]1c1ncc(-c2ccc(-c3ccc(-c4cnc([C@@H]5CN(C(=O)OC)CN5C(=O)[C@@H](NC(=O)OC)C(C)C)[nH]4)cc3)cc2)[nH]1)C(C)C`, the 50% effective concentration (EC50) is 0.03 nM.
With `COC(=O)N[C@H](C(=O)N1CCC[C@H]1c1ncc(-c2ccc3c(c2)C(=O)c2cc(-c4cnc([C@@H]5CCCN5C(=O)[C@@H](NC(=O)OC)C(C)C)[nH]4)ccc2-3)[nH]1)C(C)C` the figure was 0.0184 nM; with `COC(=O)N[C@H](C(=O)N1CCC[C@H]1c1ncc(-c2ccc(/C=C/c3ccc(-c4cnc([C@@H]5CCCN5C(=O)[C@@H](NC(=O)OC)C(C)C)[nH]4)cc3)cc2)[nH]1)C(C)C`, 0.0264 nM.
In the case of `COC(=O)N[C@H](C(=O)N1CCC[C@H]1c1ncc(-c2ccc(-c3ccc(-c4cnc([C@@H]5CCCN5C(=O)[C@@H](NC(=O)OC)C(C)(C)S(C)(=O)=O)[nH]4)cc3)cc2)[nH]1)C(C)C`, the half-maximal effective concentration (EC50) was found to be 0.161 nM.
Consider `COC(=O)N[C@H](C(=O)N1CCC[C@H]1c1nc2ccc(-c3ccc(-c4ccc(-c5cnc([C@@H]6[C@H]7CC[C@H](C7)N6C(=O)[C@@H](NC(=O)OC)C(C)C)[nH]5)cc4)cc3)cc2[nH]1)C(C)C`, for which the EC50 is 0.0213 nM.
For the compound `COC(=O)N[C@H](C(=O)N1CCC[C@H]1c1ncc(-c2ccc(-c3ccc(-c4cnc([C@@H]5CCCN5C(=O)[C@@H](NC(=O)OC)C(C)C)[nH]4)cc3C#N)cc2)[nH]1)C(C)C`, the EC50 was 0.0158 nM.
With `COC(=O)N[C@H](C(=O)N1CCC[C@H]1c1ncc(C#Cc2ccc3cc(-c4cnc([C@@H]5CCCN5C(=O)[C@@H](NC(=O)OC)C(C)C)[nH]4)ccc3c2)[nH]1)C(C)C` the figure was 0.0106 nM; with `COC(=O)N[C@H](C(=O)N1CCC[C@H]1c1nc2ccc(C#CC#Cc3ccc4nc([C@@H]5CCCN5C(=O)[C@@H](NC(=O)OC)C(C)C)[nH]c4c3)cc2[nH]1)C(C)C`, 0.0261 nM.
To `COC(=O)N[C@H](C(=O)N1CCC[C@H]1c1ncc(-c2ccc(-c3ccc(-c4cnc([C@H](C)N5CCC[C@@H](NC(=O)OC)C5=O)[nH]4)cc3)cc2)[nH]1)C(C)C` belongs 0.661 nM.
To `COC(=O)N[C@H](C(=O)N1CCC[C@H]1c1nc2ccc(-c3ccc4cc(-c5ccc6nc([C@@H]7CCCN7C(=O)[C@@H](NC(=O)OC)C(C)C)[nH]c6c5)ccc4c3)cc2[nH]1)C(C)C` belongs < 0.0041 nM.
`COC(=O)N[C@H](C(=O)N1CCC[C@H]1c1ncc(-c2ccc3c(c2)COCc2cc(-c4cnc([C@@H]5[C@H]6CC[C@H](C6)N5C(=O)[C@@H](NC(=O)OC)C(C)C)[nH]4)ccc2-3)[nH]1)C(C)C`: the half-maximal effective concentration (EC50) amounted to 0.0221 nM.
To `COC(=O)N[C@H](C(=O)N1CCC[C@H]1c1ncc(-c2ccc3cc(-c4ccc5cc(-c6cnc([C@@H]7CCCN7C(=O)[C@@H](NC(=O)OC)C(C)C)[nH]6)ccc5c4)ccc3c2)[nH]1)C(C)C` belongs 0.0239 nM; to `COC(=O)N[C@H](C(=O)N1CCC[C@H]1c1ncc(-c2ccc(C#Cc3ccc(-c4cnc([C@@H]5CN(CC(F)(F)F)CCN5C(=O)[C@@H](NC(=O)OC)C(C)C)[nH]4)cc3)cc2)[nH]1)C(C)C`, 1.51 nM.
As for `COC(=O)N[C@H](C(=O)N1CCC[C@H]1c1ncc(-c2ccc(C#Cc3ccc(-c4cnc([C@@H]5CN(CC(F)(F)F)CN5C(=O)[C@@H](NC(=O)OC)C(C)C)[nH]4)cc3)cc2)[nH]1)C(C)C`, the 50% effective concentration (EC50) was 0.0304 nM.
